“Also recorded” adds a separate entry of the source.
Assays:
potato tubers [1] = test: Experiment 1.2: azoxystrobin sprayed on uncovered pre-germinated potato tubers at about 10° C. (simulated cold stress), plant growth vs check; format: in vivo; conditions: 3 g/ha; for % increased growth vs Check (visual plant growth): pre-germinated, 21 days after application
Protocol: A commercially available SC100 formulation of azoxystrobin was sprayed directly to uncovered potato tubers, which were sitting on soil (50% drench soil mixed with 50% sand), at: • 3 g/ha
(§1) The spray volume was 200 l/ha.
(§2) The check had no treatment of azoxystrobin.
(§3) The trials were repeated in 6 troughs with 3 tubers each.
Varieties tested were Allians, Belana, Marabel and Roberta. Each were tested as pre-germinated (i.e. treatment was applied when the potato tuber had 2-3 mm long sprouts) tubers.
The temperature was held at about 10° C. during the day and night to simulate cold stress.
(§4) No pest pressure present.
Visual Plant Growth was Measured 21 Days after Application: […]

potato tubers [2] = test: Experiment 1.1: azoxystrobin sprayed on uncovered potato tubers, no cold stress, plant growth vs check; format: in vivo
Protocol: A commercially available SC100 formulation of azoxystrobin was sprayed directly to uncovered potato tubers, which were sitting on soil (50% drench soil mixed with 50% sand), at two different rates: • 7.5 g/ha • 3.8 g/ha
as §1, §2, §3
Varieties tested were Allians, Belana, Marabel and Roberta. Each were tested as pre-germinated (i.e. treatment was applied when the potato tuber had 2-3 mm long sprouts) tubers and as non germinated tubers.
The temperature was about 17° C. during the day and about 15° C. during the night.
as §4
Plant vitality was measured with the “Green Seeker” system.

[3] = 21 and 34 days after application

In the case of `CO/C=C(/C(=O)OC)c1ccccc1Oc1cc(Oc2ccccc2C#N)ncn1` [azoxystrobin], the “Number of shoots in comparison with the check” value (potato tubers [1]; [3]) is reported as “increased number of shoots”, the “Shoot length in comparison with the check” value (potato tubers [1]; [3]) is reported as “increased shoot length” and the “Visually more shoot than check” value (potato tubers [1]; across varieties) is reported as “up to 38%”. For the same compound, the “Growth of treated tubers vs untreated check” value (potato tubers [1]; all varieties) was “grew better than untreated check”, the “% increased growth vs Check (visual plant growth)” value (shortened to “% increased growth vs Check”) (potato tubers [1]; variety Allians) was 38% and the “% increased growth vs Check” value (potato tubers [1]; variety Belana) was 12%. For the same compound, the “% increased growth vs Check” value (potato tubers [1]; variety Marabel) was 37%, the “% increased growth vs Check” value (potato tubers [1]; variety Roberta) was 10% and the “Shoot number in comparison with the check” value (potato tubers [2]; 7.5 g/ha and 3.8 g/ha, spray 200 l/ha, about 17° C. day/15° C. night, Allians, Belana, Marabel, Roberta, pre-germinated and non germinated tubers) was “increased number of shoots”. For the same compound, the “Shoot fresh mass in comparison with the check” value (potato tubers [2]; 7.5 g/ha and 3.8 g/ha, spray 200 l/ha, about 17° C. day/15° C. night, all varieties) was “increased shoot fresh mass; also recorded: significantly increased”, the “Plant vitality (Green Seeker) vs check” value (potato tubers [2]; Allians and Roberta, pre-germinated tubers, about 17° C. day/15° C. night) was “better than check” and the “Plant vitality (Green Seeker) in comparison with the check, FIG. 3” value (potato tubers [2]; each trial, 7.5 g/ha and 3.8 g/ha) was “increased plant vitality”. For the same compound, the “Plant vitality (Green Seeker) vs check” value (potato tubers [2]; low rate treatment (3.8 g/ha), about 17° C. day/15° C. night) was “often showed a lower value”.
